Source: ChEMBL document CHEMBL1201862, “PubChem BioAssay data set” (2004)
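All cell lines were grown in 96-well plates and treated with compound for 48 hours. GI50: concentration for 50% inhibition of growth.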 Active and inactive are the calls of the source. Cut-off read from the data, not from the text of the source: active = GI50 up to about 1.1 µM and inactive = higher.

Legend:
Test in all cases: NCI anticancer screen, dose series, 48 h
HL-60 = test system: HL-60
SN12C = test system: SN12C
RXF 393 = test system: RXF 393
HCT-116 = test system: HCT-116
OVCAR-8 = test system: OVCAR-8
T47D = test system: T47D
DLD-1 = test system: DLD-1
786-0 = test system: 786-0
NCI/ADR-RES = test system: NCI/ADR-RES
SNB-78 = test system: SNB-78
PC-3 = test system: PC-3
Malme-3M = test system: Malme-3M
XF498 = test system: XF498
HOP-62 = test system: HOP-62
M19-MEL = test system: M19-MEL
Hs-578T = test system: Hs-578T
DMS-273 = test system: DMS-273
KM-20L2 = test system: KM-20L2
DU-145 = test system: DU-145
LOX IMVI = test system: LOX IMVI

Measured: GI50

COC(=O)N/N=C(/CC1(O)C(=O)Nc2ccc([N+](=O)[O-])cc21)c1ccccc1 (stereo not given)
inactive: HL-60 35 µM | SN12C > 74 µM | RXF 393 22 µM | HCT-116 24.1 µM | OVCAR-8 29.4 µM | T47D 48.8 µM | DLD-1 46.7 µM | 786-0 25.4 µM | NCI/ADR-RES 21.8 µM | SNB-78 20.9 µM | PC-3 38.8 µM | Malme-3M 33 µM | XF498 19.4 µM | HOP-62 31 µM | M19-MEL 66.5 µM | Hs-578T 20.8 µM | DMS-273 67.8 µM | KM-20L2 > 100 µM | DU-145 > 100 µM | LOX IMVI 18.9 µM

COc1ccccc1Cc1nc(-c2ccccc2)nn(C2OC(COC(C)=O)C(OC(C)=O)C(OC(C)=O)C2OC(C)=O)c1=S (stereo not given)
inactive: HL-60 > 64.7 µM | SN12C 9.35 µM | RXF 393 3.13 µM | HCT-116 10.1 µM | OVCAR-8 5.64 µM | DLD-1 > 31.3 µM | NCI/ADR-RES 9.1 µM | SNB-78 18.2 µM | Malme-3M 5.53 µM | XF498 1.86 µM | HOP-62 10.1 µM | M19-MEL 32.7 µM | DMS-273 > 39.2 µM | KM-20L2 29.1 µM | LOX IMVI 11.2 µM

O=C(NC(Cc1ccc(I)cc1)C(=O)O)c1ccc(I)cc1 (stereo not given)
inactive: HL-60 > 62.1 µM | SN12C > 100 µM | RXF 393 > 100 µM | HCT-116 54.1 µM | OVCAR-8 > 74.8 µM | DLD-1 > 100 µM | NCI/ADR-RES > 100 µM | SNB-78 > 89.3 µM | Malme-3M 67.1 µM | XF498 > 66.4 µM | HOP-62 72.3 µM | M19-MEL 72.3 µM | DMS-273 94.8 µM | KM-20L2 > 94.8 µM | LOX IMVI > 100 µM
